Calls of active or inactive are those of the source. The rule behind the calls is not given here.
Legend:
[1] = Half life in rat at 10 mg/kg, po; type: ADME, organism-based; settings: in vivo
[2] = Cmax in rat at 10 mg/kg, po; type: ADME, organism-based; set-up: route oral, dose 10 mg/kg; settings: in vivo
[3] = AUC (0 to infinity) in rat at 10 mg/kg, po; type: ADME, organism-based; set-up: time infinity, route oral, dose 10 mg/kg; settings: in vivo
[4] = Clearance in rat at 10 mg/kg, po; type: ADME, organism-based; settings: in vivo
[5] = Oral bioavailability in rat at 10 mg/kg; type: ADME, organism-based; settings: in vivo
[6] = Half life in rat at 1 mg/kg, iv; type: ADME, organism-based; settings: in vivo
[7] = Cmax in rat at 1 mg/kg, iv; type: ADME, organism-based; set-up: route intravenous, dose 1 mg/kg; settings: in vivo
[8] = AUC (0 to infinity) in rat at 1 mg/kg, iv; type: ADME, organism-based; set-up: route intravenous, time infinity, dose 1 mg/kg; settings: in vivo
[9] = Apparent volume of distribution in rat at 1 mg/kg, iv; type: ADME, organism-based; settings: in vivo, read-out: Vz
[10] = biological target: Histone-lysine N-methyltransferase EHMT2 (Homo sapiens) (UniProt Q96KQ7); test: Inhibition of G9A (unknown origin) at 10 uM using SAM as substrate measured up to 960 mins by AlphaScreen microplate reader assay relative to control; settings: time min <=960
[11] = biological target: Histone-lysine N-methyltransferase SUV39H1 (Homo sapiens) (UniProt O43463); test: Inhibition of SUV39H1 (unknown origin) at 10 uM using SAM as substrate measured up to 960 mins by AlphaScreen microplate reader assay relative to control; settings: time min <=960
Sequence of Histone-lysine N-methyltransferase SUV39H1 (Homo sapiens) (O43463 whole entry): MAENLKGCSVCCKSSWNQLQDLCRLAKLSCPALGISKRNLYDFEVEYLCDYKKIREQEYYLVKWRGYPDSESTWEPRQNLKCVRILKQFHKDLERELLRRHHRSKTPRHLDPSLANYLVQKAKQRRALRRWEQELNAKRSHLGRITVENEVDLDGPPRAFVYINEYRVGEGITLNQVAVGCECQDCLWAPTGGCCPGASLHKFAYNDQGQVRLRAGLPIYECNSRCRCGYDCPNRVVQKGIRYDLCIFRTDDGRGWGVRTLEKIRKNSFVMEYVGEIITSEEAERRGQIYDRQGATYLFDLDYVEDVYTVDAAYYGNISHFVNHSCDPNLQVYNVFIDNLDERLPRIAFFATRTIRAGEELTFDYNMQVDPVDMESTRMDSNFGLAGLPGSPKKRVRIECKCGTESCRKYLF

[12] = biological target: Protein arginine N-methyltransferase 1 (Homo sapiens) (UniProt Q99873); test: Inhibition of PRMT1 (unknown origin) at 10 uM using SAM as substrate measured up to 960 mins by AlphaScreen microplate reader assay relative to control; settings: time min <=960
Sequence of Protein arginine N-methyltransferase 1 (Homo sapiens) (Q99873 whole entry, looked up): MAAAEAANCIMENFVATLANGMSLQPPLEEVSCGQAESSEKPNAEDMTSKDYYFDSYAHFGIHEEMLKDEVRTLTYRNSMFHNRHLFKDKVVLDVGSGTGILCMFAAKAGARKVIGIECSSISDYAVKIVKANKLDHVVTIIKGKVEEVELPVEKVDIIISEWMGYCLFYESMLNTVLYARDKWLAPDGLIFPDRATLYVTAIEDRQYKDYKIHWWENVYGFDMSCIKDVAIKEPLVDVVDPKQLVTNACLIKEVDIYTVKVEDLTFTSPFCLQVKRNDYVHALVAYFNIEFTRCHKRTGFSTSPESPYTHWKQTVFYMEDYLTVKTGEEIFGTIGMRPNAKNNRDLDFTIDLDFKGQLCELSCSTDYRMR

[13] = biological target: Protein arginine N-methyltransferase 3 (Homo sapiens) (UniProt O60678); test: Inhibition of PRMT3 (unknown origin) at 10 uM using SAM as substrate measured up to 960 mins by AlphaScreen microplate reader assay relative to control; settings: time min <=960
Sequence of Protein arginine N-methyltransferase 3 (Homo sapiens) (O60678 2-531 limits assumed): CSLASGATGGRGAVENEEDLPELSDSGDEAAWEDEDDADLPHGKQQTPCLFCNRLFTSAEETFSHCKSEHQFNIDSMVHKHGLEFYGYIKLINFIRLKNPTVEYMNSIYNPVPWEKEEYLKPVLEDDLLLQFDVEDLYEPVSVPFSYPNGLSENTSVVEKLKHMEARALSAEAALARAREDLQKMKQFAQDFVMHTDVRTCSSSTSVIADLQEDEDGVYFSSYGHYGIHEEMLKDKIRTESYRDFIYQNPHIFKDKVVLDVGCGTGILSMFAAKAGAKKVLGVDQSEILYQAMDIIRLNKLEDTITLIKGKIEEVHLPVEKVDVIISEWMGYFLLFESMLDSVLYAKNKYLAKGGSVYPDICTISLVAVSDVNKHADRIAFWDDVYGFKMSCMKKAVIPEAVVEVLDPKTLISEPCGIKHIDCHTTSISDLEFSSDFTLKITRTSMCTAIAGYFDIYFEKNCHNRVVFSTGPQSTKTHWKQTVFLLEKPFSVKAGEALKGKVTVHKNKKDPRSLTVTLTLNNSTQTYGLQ

[14] = biological target: Protein arginine N-methyltransferase 6 (Homo sapiens) (UniProt Q96LA8); test: Inhibition of PRMT6 (unknown origin) at 10 uM using SAM as substrate measured up to 960 mins by AlphaScreen microplate reader assay relative to control; settings: time min <=960
[15] = biological target: Histone-lysine N-methyltransferase, H3 lysine-79 specific (Homo sapiens) (UniProt Q8TEK3); test: Inhibition of DOT1L (unknown origin) at 10 uM using SAM as substrate measured up to 960 mins by AlphaScreen microplate reader assay relative to control; settings: time min <=960
Sequence of Histone-lysine N-methyltransferase, H3 lysine-79 specific (Homo sapiens) (Q8TEK3 whole entry, looked up): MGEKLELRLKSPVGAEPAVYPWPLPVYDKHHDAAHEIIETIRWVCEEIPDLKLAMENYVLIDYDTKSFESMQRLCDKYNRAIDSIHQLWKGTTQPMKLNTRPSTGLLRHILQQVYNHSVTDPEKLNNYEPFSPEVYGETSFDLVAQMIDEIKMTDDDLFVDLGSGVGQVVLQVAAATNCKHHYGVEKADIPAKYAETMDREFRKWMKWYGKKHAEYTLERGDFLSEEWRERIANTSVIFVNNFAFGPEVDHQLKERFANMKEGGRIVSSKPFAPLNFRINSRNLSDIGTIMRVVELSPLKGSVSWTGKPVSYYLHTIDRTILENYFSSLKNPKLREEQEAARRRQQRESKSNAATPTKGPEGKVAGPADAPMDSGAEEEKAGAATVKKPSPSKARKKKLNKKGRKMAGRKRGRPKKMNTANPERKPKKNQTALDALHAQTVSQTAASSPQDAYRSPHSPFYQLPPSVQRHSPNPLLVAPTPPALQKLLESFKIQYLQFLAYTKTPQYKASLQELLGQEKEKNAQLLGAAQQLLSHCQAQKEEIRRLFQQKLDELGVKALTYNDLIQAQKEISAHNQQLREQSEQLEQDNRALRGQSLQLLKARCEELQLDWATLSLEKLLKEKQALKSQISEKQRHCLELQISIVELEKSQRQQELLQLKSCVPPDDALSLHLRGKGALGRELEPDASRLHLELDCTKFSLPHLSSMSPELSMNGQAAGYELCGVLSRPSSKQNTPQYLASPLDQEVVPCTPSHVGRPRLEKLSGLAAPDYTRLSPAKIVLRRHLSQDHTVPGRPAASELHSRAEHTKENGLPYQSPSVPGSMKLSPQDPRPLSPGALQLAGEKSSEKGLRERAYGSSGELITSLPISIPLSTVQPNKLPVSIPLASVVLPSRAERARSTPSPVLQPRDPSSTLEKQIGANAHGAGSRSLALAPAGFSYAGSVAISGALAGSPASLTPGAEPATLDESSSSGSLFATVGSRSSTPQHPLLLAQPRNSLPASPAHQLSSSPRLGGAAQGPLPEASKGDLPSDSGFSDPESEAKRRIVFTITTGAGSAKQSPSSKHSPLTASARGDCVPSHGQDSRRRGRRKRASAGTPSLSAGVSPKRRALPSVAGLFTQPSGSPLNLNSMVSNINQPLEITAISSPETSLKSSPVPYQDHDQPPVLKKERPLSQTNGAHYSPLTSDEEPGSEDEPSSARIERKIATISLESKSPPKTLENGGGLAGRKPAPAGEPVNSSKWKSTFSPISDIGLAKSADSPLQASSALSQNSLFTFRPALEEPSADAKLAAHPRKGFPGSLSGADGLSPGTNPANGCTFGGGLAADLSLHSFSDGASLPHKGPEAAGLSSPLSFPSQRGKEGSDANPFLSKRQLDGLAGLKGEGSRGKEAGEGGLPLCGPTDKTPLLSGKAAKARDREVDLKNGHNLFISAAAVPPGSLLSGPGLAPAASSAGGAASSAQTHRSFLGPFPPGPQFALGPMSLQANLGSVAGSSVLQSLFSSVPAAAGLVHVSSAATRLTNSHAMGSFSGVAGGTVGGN

[16] = biological target: Histone-lysine N-methyltransferase SETDB1 (Homo sapiens) (UniProt Q15047); test: Inhibition of SETDB1 (unknown origin) at 10 uM using SAM as substrate measured up to 960 mins by AlphaScreen microplate reader assay relative to control; settings: time min <=960
[17] = biological target: N-lysine methyltransferase KMT5A (Homo sapiens) (UniProt Q9NQR1); test: Inhibition of SET8 (unknown origin) at 10 uM using SAM as substrate measured up to 960 mins by AlphaScreen microplate reader assay relative to control; settings: time min <=960
Sequence of N-lysine methyltransferase KMT5A (Homo sapiens) (Q9NQR1 whole entry): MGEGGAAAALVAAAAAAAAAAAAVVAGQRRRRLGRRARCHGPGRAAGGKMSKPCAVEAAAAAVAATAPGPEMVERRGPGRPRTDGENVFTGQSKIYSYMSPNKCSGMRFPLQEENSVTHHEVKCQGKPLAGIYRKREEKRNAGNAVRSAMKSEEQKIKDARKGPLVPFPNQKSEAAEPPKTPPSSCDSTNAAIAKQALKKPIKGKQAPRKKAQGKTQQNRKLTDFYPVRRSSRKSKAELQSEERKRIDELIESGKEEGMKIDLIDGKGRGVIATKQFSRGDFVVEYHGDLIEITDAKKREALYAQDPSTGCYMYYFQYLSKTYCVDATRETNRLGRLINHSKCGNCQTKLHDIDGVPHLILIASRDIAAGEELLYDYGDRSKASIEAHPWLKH

[18] = biological target: Histone-lysine N-methyltransferase EZH1 (Homo sapiens) (UniProt Q92800); test: Inhibition of EZH1 (unknown origin) at 10 uM using SAM as substrate measured up to 960 mins by AlphaScreen microplate reader assay relative to control; settings: time min <=960
Sequence of Histone-lysine N-methyltransferase EZH1 (Homo sapiens) (Q92800 whole entry): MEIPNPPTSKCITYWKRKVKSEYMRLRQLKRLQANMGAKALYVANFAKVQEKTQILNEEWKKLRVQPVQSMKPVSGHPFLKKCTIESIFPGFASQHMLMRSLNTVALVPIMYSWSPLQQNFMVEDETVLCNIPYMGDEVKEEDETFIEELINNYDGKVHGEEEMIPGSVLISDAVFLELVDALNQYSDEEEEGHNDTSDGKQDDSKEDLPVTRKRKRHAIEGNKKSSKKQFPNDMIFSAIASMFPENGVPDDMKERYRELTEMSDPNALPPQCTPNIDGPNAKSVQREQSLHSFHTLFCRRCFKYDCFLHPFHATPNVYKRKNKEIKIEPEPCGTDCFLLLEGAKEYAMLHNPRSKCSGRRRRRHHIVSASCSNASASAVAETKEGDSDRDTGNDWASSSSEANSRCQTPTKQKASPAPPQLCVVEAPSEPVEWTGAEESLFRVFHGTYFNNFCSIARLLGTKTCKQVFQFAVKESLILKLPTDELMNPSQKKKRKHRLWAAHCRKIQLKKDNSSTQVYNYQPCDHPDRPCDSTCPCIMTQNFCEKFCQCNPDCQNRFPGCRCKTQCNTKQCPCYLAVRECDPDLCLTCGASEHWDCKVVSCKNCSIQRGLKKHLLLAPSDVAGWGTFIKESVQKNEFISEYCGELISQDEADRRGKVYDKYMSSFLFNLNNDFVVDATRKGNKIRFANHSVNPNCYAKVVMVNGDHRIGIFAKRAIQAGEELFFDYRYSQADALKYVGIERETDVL

[19] = biological target: Histone-lysine N-methyltransferase EZH2 (Homo sapiens) (UniProt Q15910); test: Inhibition of EZH2 (unknown origin) at 10 uM using SAM as substrate measured up to 960 mins by AlphaScreen microplate reader assay relative to control; settings: time min <=960
Sequence of Histone-lysine N-methyltransferase EZH2 (Homo sapiens) (Q15910 whole entry, looked up): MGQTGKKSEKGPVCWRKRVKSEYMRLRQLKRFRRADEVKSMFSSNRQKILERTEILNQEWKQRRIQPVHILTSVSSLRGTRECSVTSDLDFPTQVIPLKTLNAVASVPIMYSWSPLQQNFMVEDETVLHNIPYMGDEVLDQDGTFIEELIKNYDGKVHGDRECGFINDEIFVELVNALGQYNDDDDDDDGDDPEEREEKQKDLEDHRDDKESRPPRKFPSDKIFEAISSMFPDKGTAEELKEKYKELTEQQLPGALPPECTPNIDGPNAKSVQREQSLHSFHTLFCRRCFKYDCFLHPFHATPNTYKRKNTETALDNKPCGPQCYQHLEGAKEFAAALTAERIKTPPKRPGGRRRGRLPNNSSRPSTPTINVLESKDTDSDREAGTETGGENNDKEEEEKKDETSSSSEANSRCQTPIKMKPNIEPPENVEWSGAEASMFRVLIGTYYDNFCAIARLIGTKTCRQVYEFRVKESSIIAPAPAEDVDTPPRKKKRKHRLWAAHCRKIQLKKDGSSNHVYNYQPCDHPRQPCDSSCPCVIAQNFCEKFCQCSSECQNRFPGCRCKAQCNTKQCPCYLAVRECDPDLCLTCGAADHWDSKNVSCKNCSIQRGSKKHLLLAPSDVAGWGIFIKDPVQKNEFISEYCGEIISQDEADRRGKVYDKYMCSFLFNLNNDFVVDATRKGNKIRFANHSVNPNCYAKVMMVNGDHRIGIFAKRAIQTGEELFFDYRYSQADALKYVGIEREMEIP

[20] = system: Histone-lysine N-methyltransferase EZH2 (Homo sapiens), Q15910 [A677G]; test: Inhibition of EZH2 A677G mutant (unknown origin) at 10 uM using SAM as substrate measured up to 960 mins by AlphaScreen microplate reader assay relative to control; settings: time min <=960
Sequence of Histone-lysine N-methyltransferase EZH2 (Homo sapiens), Q15910 [A677G] (Q15910 whole entry A677G): as the sequence (Q15910 whole entry, looked up) above, with A677G counted along it

[21] = system: Histone-lysine N-methyltransferase EZH2 (Homo sapiens), Q15910 [Y641S]; test: Inhibition of EZH2 Y641S mutant (unknown origin) at 10 uM using SAM as substrate measured up to 960 mins by AlphaScreen microplate reader assay relative to control; settings: time min <=960
Sequence of Histone-lysine N-methyltransferase EZH2 (Homo sapiens), Q15910 [Y641S] (Q15910 whole entry Y641S): as the sequence (Q15910 whole entry, looked up) above, with Y641S counted along it

Homo sapiens = species on record: Homo sapiens; test: Inhibition of EZH2 (unknown origin) interaction with EED (unknown origin) at 10 uM relative to control
SUD4 = test: Antiproliferative activity against human SU-DHL-4 cells harboring EZH2 Y641S mutant assessed as inhibition of cell growth measured after 6 days by CellTiter-Glo luminescent assay; type: functional; settings: SU-DHL-4, 144 h, time 6 day
Raji = test: Antiproliferative activity against human Raji cells expressing wild type EZH2 assessed as inhibition of cell growth measured after 6 days by CellTiter-Glo luminescent assay; settings: 144 h
Pfeiffer = test: Antitumor activity against human Pfeiffer cells harboring EZH2 A677G mutant xenografted in NCG mouse assessed as tumor growth inhibition at 100 mg/kg, po BID via gavage measured after 28 days relative to control; type: functional; settings: 672 h, time 28 day, read-out: TGI
[22] = Toxicity in NCG mouse xenografted with human Pfeiffer cells harboring EZH2 A677G mutant assessed as effect on body weight at 50 to 200 mg/kg, po BID via gavage measured after 28 days; type: organism-based; settings: in vivo, 672 h, dose 50-200 mg/kg, time 28 day
[23] = Toxicity in NCG mouse xenografted with human KARPAS-422 cells harboring EZH2 Y641N mutant assessed as effect on body weight at 50 to 200 mg/kg, po BID via gavage measured after 28 days; type: organism-based; settings: in vivo, 672 h, dose 50-200 mg/kg, time 28 day
KARPAS-422 [24] = test: Antitumor activity against human KARPAS-422 cells harboring EZH2 Y641N mutant xenografted in NCG mouse assessed as tumor regression at 200 mg/kg, po BID via gavage measured within 10 days; type: functional, organism-based; settings: time day <10
[25] = AUC (0 to t) in mouse at 10 mg/kg, po measured up to 24 hrs by LC-MS/MS analysis; type: ADME, organism-based; set-up: route oral, dose 10 mg/kg, time <=24; settings: in vivo
[26] = Clearance in mouse at 10 mg/kg, po measured up to 24 hrs by LC-MS/MS analysis; type: ADME, organism-based; settings: in vivo
[27] = Oral bioavailability in mouse at 10 mg/kg measured up to 24 hrs by LC-MS/MS analysis; type: ADME, organism-based; settings: in vivo
[28] = AUC (0 to t) in mouse at 1 mg/kg, iv measured up to 24 hrs by LC-MS/MS analysis; type: ADME, organism-based; set-up: route intravenous, dose 1 mg/kg, time <=24; settings: in vivo
[29] = AUC (0 to infinity) in mouse at 1 mg/kg, iv measured up to 24 hrs by LC-MS/MS analysis; type: ADME, organism-based; set-up: route intravenous, dose 1 mg/kg, time <=24; settings: in vivo
[30] = Clearance in mouse at 1 mg/kg, iv measured up to 24 hrs by LC-MS/MS analysis; type: ADME, organism-based; settings: in vivo
KARPAS-422 [31] = test: Antitumor activity against human KARPAS-422 cells harboring EZH2 Y641N mutant xenografted in NCG mouse assessed as change in tumor weight at 50 mg/kg, po BID via gavage measured after 28 days (reference value: 2.14 g); type: functional; settings: time 28 day
KARPAS-422 [32] = test: Antitumor activity against human KARPAS-422 cells harboring EZH2 Y641N mutant xenografted in NCG mouse assessed as change in tumor weight at 100 mg/kg, po BID via gavage measured after 28 days (reference value: 2.14 g); type: functional; settings: time 28 day

With CCN(C(=O)C1CC1)c1cc(-c2ccc(N3CCN(CC4CC4)CC3)nc2C)cc(C(=O)NCc2c(C)cc(C)[nH]c2=O)c1C as the compound, how does the half-life [1] read?
The half-life was 1.45 h.

And the Cmax [2]?
The Cmax was 240 ng/mL.

What about the AUC(0-inf) [3] of the same compound?
Its AUC(0-inf) is 604 ng·h/mL.

What about the CL/F [4] of the same compound?
The CL/F was 291 mL/min/kg.

And the bioavailability [5]?
Its bioavailability is 31%.

And the half-life [6]?
Its half-life is 1.82 h.

What about the Cmax [7] of the same compound?
Its Cmax is 406 ng/mL.

And the AUC(0-inf) [8]?
Its AUC(0-inf) is 195 ng·h/mL.

And the Vd [9]?
The Vd was 9.1 L/kg.

What about the inhibition [10] of the same compound?
The inhibition was 0%.

What about the inhibition [11] of the same compound?
Its inhibition is 1%.

What about the inhibition [12] of the same compound?
Its inhibition is 7%.

And the inhibition [13]?
Its inhibition is 0%.

And the inhibition [14]?
The inhibition was 0%.

And the inhibition [15]?
The inhibition was 0%.

What about the inhibition [16] of the same compound?
The inhibition was 1%.

And the inhibition [17]?
The inhibition was 2%.

What about the inhibition [18] of the same compound?
The inhibition was 92%.

What about the inhibition [19] of the same compound?
The inhibition was 100%.

What about the inhibition [20] of the same compound?
The inhibition was 87%.

And the inhibition [21]?
Its inhibition is 90%.

What about the inhibition (Homo sapiens) of the same compound?
Its inhibition is 21%.

And the GI50 (SUD4)?
Its GI50 is 3.87 µM.

And the GI50 (Raji)?
Its GI50 is over 10 µM.

And the inhibition in vivo at 100 mg/kg (Pfeiffer)?
The inhibition in vivo at 100 mg/kg was 100%.

And the Activity [22]?
Its Activity is “Non-Toxic”.

What about the Activity [23] of the same compound?
The Activity was “Non-Toxic”.

What about the Activity (KARPAS-422 [24]) of the same compound?
Its Activity is “Active”.

And the AUC(0-t) at 24 h [25]?
Its AUC(0-t) at 24 h is 1000 ng·h/mL.

What about the CL [26] of the same compound?
The CL was 165.9 mL/min/kg.

What about the bioavailability [27] of the same compound?
Its bioavailability is 27%.

And the AUC(0-t) at 24 h [28]?
The AUC(0-t) at 24 h was 366 ng·h/mL.

What about the AUC(0-inf) [29] of the same compound?
Its AUC(0-inf) is 372 ng·h/mL.

And the CL [30]?
The CL was 44.75 mL/min/kg.

What about the Activity (KARPAS-422 [31]) of the same compound?
Its Activity is 1.17 g.

What about the Activity (KARPAS-422 [32]) of the same compound?
The Activity was 0.64 g.

From ChEMBL document CHEMBL4831544, “Discovery of IHMT-EZH2-115 as a Potent and Selective Enhancer of Zeste Homolog 2 (EZH2) Inhibitor for the Treatment of B-Cell Lymphomas” (J Med Chem, 2021)
